Laboratory results as given in ChEMBL document CHEMBL3351810, “[(11)C-carbonyl]CEP-32496: radiosynthesis, biodistribution and PET study of brain uptake in P-gp/BCRP knockout mice” (Bioorg Med Chem Lett, 2014).

Legend:
Pancreas [1] = experiment: Biodistribution in mouse pancreas at 8.4 MBq/0.1 ml, iv after 5 mins by PET imaging analysis; type: ADME, organism-based; conditions: in vivo
Kidney [2] = experiment: Biodistribution in mouse kidney at 8.4 MBq/0.1 ml, iv after 1 min by PET imaging analysis; type: ADME, organism-based; conditions: in vivo
Blood [3] = experiment: Biodistribution in mouse blood at 8.4 MBq/0.1 ml, iv after 30 mins by PET imaging analysis; type: ADME, organism-based; conditions: in vivo, 0.5 h
Liver [4] = experiment: Biodistribution in mouse liver at 8.4 MBq/0.1 ml, iv after 1 min by PET imaging analysis; type: ADME, organism-based; conditions: in vivo
Mus musculus [5] = experiment: Biodistribution in mouse small intestine at 8.4 MBq/0.1 ml, iv after 15 mins by PET imaging analysis; type: ADME, organism-based; conditions: in vivo, 0.25 h
Liver [6] = experiment: Biodistribution in mouse liver at 8.4 MBq/0.1 ml, iv after 15 mins by PET imaging analysis; type: ADME, organism-based; conditions: in vivo, 0.25 h
Pancreas [7] = experiment: Biodistribution in mouse pancreas at 8.4 MBq/0.1 ml, iv after 1 min by PET imaging analysis; type: ADME, organism-based; conditions: in vivo
Blood [8] = experiment: Biodistribution in mouse blood at 8.4 MBq/0.1 ml, iv after 5 mins by PET imaging analysis; type: ADME, organism-based; conditions: in vivo
Brain [9] = experiment: Biodistribution in mouse brain at 8.4 MBq/0.1 ml, iv after 60 mins by PET imaging analysis; type: ADME, organism-based; conditions: in vivo, 1 h
Liver [10] = experiment: Biodistribution in mouse liver at 8.4 MBq/0.1 ml, iv after 5 mins by PET imaging analysis; type: ADME, organism-based; conditions: in vivo
Lung [11] = experiment: Biodistribution in mouse lung at 8.4 MBq/0.1 ml, iv after 5 mins by PET imaging analysis; type: ADME, organism-based; conditions: in vivo
Blood [12] = experiment: Biodistribution in mouse blood at 8.4 MBq/0.1 ml, iv after 1 min by PET imaging analysis; type: ADME, organism-based; conditions: in vivo
Spleen [13] = experiment: Biodistribution in mouse spleen at 8.4 MBq/0.1 ml, iv after 30 mins by PET imaging analysis; type: ADME, organism-based; conditions: in vivo, 0.5 h
Heart [14] = experiment: Biodistribution in mouse heart at 8.4 MBq/0.1 ml, iv after 1 min by PET imaging analysis; type: ADME, organism-based; conditions: in vivo
Mus musculus [15] = experiment: Biodistribution in mouse small intestine at 8.4 MBq/0.1 ml, iv after 1 min by PET imaging analysis; type: ADME, organism-based; conditions: in vivo
Heart [16] = experiment: Biodistribution in mouse heart at 8.4 MBq/0.1 ml, iv after 5 mins by PET imaging analysis; type: ADME, organism-based; conditions: in vivo
Pancreas [17] = experiment: Biodistribution in mouse pancreas at 8.4 MBq/0.1 ml, iv after 30 mins by PET imaging analysis; type: ADME, organism-based; conditions: in vivo, 0.5 h
Mus musculus [18] = experiment: Biodistribution in mouse large intestine at 8.4 MBq/0.1 ml, iv after 15 mins by PET imaging analysis; type: ADME, organism-based; conditions: in vivo, 0.25 h
Heart [19] = experiment: Biodistribution in mouse heart at 8.4 MBq/0.1 ml, iv after 15 mins by PET imaging analysis; type: ADME, organism-based; conditions: in vivo, 0.25 h
Brain [20] = experiment: Biodistribution in wild type mouse brain by PET imaging analysis; type: ADME, organism-based; conditions: in vivo
Muscle tissue [21] = experiment: Biodistribution in mouse muscle at 8.4 MBq/0.1 ml, iv after 15 mins by PET imaging analysis; type: ADME, organism-based; conditions: in vivo, 0.25 h
Brain [22] = experiment: Biodistribution in mouse brain at 8.4 MBq/0.1 ml, iv after 1 min by PET imaging analysis; type: ADME, organism-based; conditions: in vivo
Muscle tissue [23] = experiment: Biodistribution in mouse muscle at 8.4 MBq/0.1 ml, iv after 5 mins by PET imaging analysis; type: ADME, organism-based; conditions: in vivo
Spleen [24] = experiment: Biodistribution in mouse spleen at 8.4 MBq/0.1 ml, iv after 15 mins by PET imaging analysis; type: ADME, organism-based; conditions: in vivo, 0.25 h
Liver [25] = experiment: Biodistribution in mouse liver at 8.4 MBq/0.1 ml, iv after 60 mins by PET imaging analysis; type: ADME, organism-based; conditions: in vivo, 1 h
Brain [26] = experiment: Ratio of drug uptake in P-gp/BCRP knockout mouse brain to wild type mouse brain; type: ADME; conditions: in vivo
Mus musculus [27] = experiment: Biodistribution in mouse large intestine at 8.4 MBq/0.1 ml, iv after 5 mins by PET imaging analysis; type: ADME, organism-based; conditions: in vivo
Brain [28] = experiment: Biodistribution in mouse brain at 8.4 MBq/0.1 ml, iv after 30 mins by PET imaging analysis; type: ADME, organism-based; conditions: in vivo, 0.5 h
Mus musculus [29] = experiment: Biodistribution in mouse small intestine at 8.4 MBq/0.1 ml, iv after 30 mins by PET imaging analysis; type: ADME, organism-based; conditions: in vivo, 0.5 h
Muscle tissue [30] = experiment: Biodistribution in mouse muscle at 8.4 MBq/0.1 ml, iv after 30 mins by PET imaging analysis; type: ADME, organism-based; conditions: in vivo, 0.5 h
Brain [31] = experiment: Biodistribution in mouse brain at 8.4 MBq/0.1 ml, iv after 15 mins by PET imaging analysis; type: ADME, organism-based; conditions: in vivo, 0.25 h
Mus musculus [32] = experiment: Biodistribution in mouse large intestine at 8.4 MBq/0.1 ml, iv after 1 min by PET imaging analysis; type: ADME, organism-based; conditions: in vivo
Spleen [33] = experiment: Biodistribution in mouse spleen at 8.4 MBq/0.1 ml, iv after 5 mins by PET imaging analysis; type: ADME, organism-based; conditions: in vivo
Mus musculus [34] = experiment: Biodistribution in mouse small intestine at 8.4 MBq/0.1 ml, iv after 60 mins by PET imaging analysis; type: ADME, organism-based; conditions: in vivo, 1 h
Muscle tissue [35] = experiment: Biodistribution in mouse muscle at 8.4 MBq/0.1 ml, iv after 1 min by PET imaging analysis; type: ADME, organism-based; conditions: in vivo
Spleen [36] = experiment: Biodistribution in mouse spleen at 8.4 MBq/0.1 ml, iv after 60 mins by PET imaging analysis; type: ADME, organism-based; conditions: in vivo, 1 h
Brain [37] = experiment: Biodistribution in P-gp/BCRP knockout mouse brain by PET imaging analysis; type: ADME, organism-based; conditions: in vivo
Kidney [38] = experiment: Biodistribution in mouse kidney at 8.4 MBq/0.1 ml, iv after 30 mins by PET imaging analysis; type: ADME, organism-based; conditions: in vivo, 0.5 h
Lung [39] = experiment: Biodistribution in mouse lung at 8.4 MBq/0.1 ml, iv after 60 mins by PET imaging analysis; type: ADME, organism-based; conditions: in vivo, 1 h
Blood [40] = experiment: Biodistribution in mouse blood at 8.4 MBq/0.1 ml, iv after 60 mins by PET imaging analysis; type: ADME, organism-based; conditions: in vivo, 1 h
Liver [41] = experiment: Biodistribution in mouse liver at 8.4 MBq/0.1 ml, iv after 30 mins by PET imaging analysis; type: ADME, organism-based; conditions: in vivo, 0.5 h
Muscle tissue [42] = experiment: Biodistribution in mouse muscle at 8.4 MBq/0.1 ml, iv after 60 mins by PET imaging analysis; type: ADME, organism-based; conditions: in vivo, 1 h
Spleen [43] = experiment: Biodistribution in mouse spleen at 8.4 MBq/0.1 ml, iv after 1 min by PET imaging analysis; type: ADME, organism-based; conditions: in vivo
Pancreas [44] = experiment: Biodistribution in mouse pancreas at 8.4 MBq/0.1 ml, iv after 15 mins by PET imaging analysis; type: ADME, organism-based; conditions: in vivo, 0.25 h
Lung [45] = experiment: Biodistribution in mouse lung at 8.4 MBq/0.1 ml, iv after 15 mins by PET imaging analysis; type: ADME, organism-based; conditions: in vivo, 0.25 h
Heart [46] = experiment: Biodistribution in mouse heart at 8.4 MBq/0.1 ml, iv after 60 mins by PET imaging analysis; type: ADME, organism-based; conditions: in vivo, 1 h
Lung [47] = experiment: Biodistribution in mouse lung at 8.4 MBq/0.1 ml, iv after 1 min by PET imaging analysis; type: ADME, organism-based; conditions: in vivo
Blood [48] = experiment: Biodistribution in mouse blood at 8.4 MBq/0.1 ml, iv after 15 mins by PET imaging analysis; type: ADME, organism-based; conditions: in vivo, 0.25 h
Brain [49] = experiment: Biodistribution in mouse brain at 8.4 MBq/0.1 ml, iv after 5 mins by PET imaging analysis; type: ADME, organism-based; conditions: in vivo
Lung [50] = experiment: Biodistribution in mouse lung at 8.4 MBq/0.1 ml, iv after 30 mins by PET imaging analysis; type: ADME, organism-based; conditions: in vivo, 0.5 h
Mus musculus [51] = experiment: Biodistribution in mouse small intestine at 8.4 MBq/0.1 ml, iv after 5 mins by PET imaging analysis; type: ADME, organism-based; conditions: in vivo
Kidney [52] = experiment: Biodistribution in mouse kidney at 8.4 MBq/0.1 ml, iv after 5 mins by PET imaging analysis; type: ADME, organism-based; conditions: in vivo
Heart [53] = experiment: Biodistribution in mouse heart at 8.4 MBq/0.1 ml, iv after 30 mins by PET imaging analysis; type: ADME, organism-based; conditions: in vivo, 0.5 h
Brain [54] = experiment: Ratio of AUC (0 to 90 mins) in P-gp/BCRP knockout mouse brain to AUC (0 to 90 mins) in wild type mouse brain; conditions: in vivo
Mus musculus [55] = experiment: Biodistribution in mouse large intestine at 8.4 MBq/0.1 ml, iv after 60 mins by PET imaging analysis; type: ADME, organism-based; conditions: in vivo, 1 h
Kidney [56] = experiment: Biodistribution in mouse kidney at 8.4 MBq/0.1 ml, iv after 60 mins by PET imaging analysis; type: ADME, organism-based; conditions: in vivo, 1 h
Kidney [57] = experiment: Biodistribution in mouse kidney at 8.4 MBq/0.1 ml, iv after 15 mins by PET imaging analysis; type: ADME, organism-based; conditions: in vivo, 0.25 h
Mus musculus [58] = experiment: Biodistribution in mouse large intestine at 8.4 MBq/0.1 ml, iv after 30 mins by PET imaging analysis; type: ADME, organism-based; conditions: in vivo, 0.5 h
Pancreas [59] = experiment: Biodistribution in mouse pancreas at 8.4 MBq/0.1 ml, iv after 60 mins by PET imaging analysis; type: ADME, organism-based; conditions: in vivo, 1 h

Drug uptake (Pancreas [1]): 2.77 % ID/g | Drug uptake (Kidney [2]): 12.33 % ID/g | Drug uptake (Blood [3]): 0.87 % ID/g | Drug uptake (Liver [4]): 17.18 % ID/g | Drug uptake (Mus musculus [5]): 22.18 % ID/g | Drug uptake (Liver [6]): 17.4 % ID/g | Drug uptake (Pancreas [7]): 2.96 % ID/g | Drug uptake (Blood [8]): 0.99 % ID/g | Drug uptake (Brain [9]): 0.08 % ID/g | Drug uptake (Liver [10]): 15.3 % ID/g | Drug uptake (Lung [11]): 4.75 % ID/g | Drug uptake (Blood [12]): 3.14 % ID/g | Drug uptake (Spleen [13]): 2.03 % ID/g | Drug uptake (Heart [14]): 11.25 % ID/g | Drug uptake (Mus musculus [15]): 5.92 % ID/g | Drug uptake (Heart [16]): 4.43 % ID/g | Drug uptake (Pancreas [17]): 3.94 % ID/g | Drug uptake (Mus musculus [18]): 1.01 % ID/g | Drug uptake (Heart [19]): 3.56 % ID/g | Drug uptake (Brain [20]): Active | Drug uptake (Muscle tissue [21]): 1.6 % ID/g | Drug uptake (Brain [22]): 0.21 % ID/g | Drug uptake (Muscle tissue [23]): 1.52 % ID/g | Drug uptake (Spleen [24]): 2.05 % ID/g | Drug uptake (Liver [25]): 12.69 % ID/g | Ratio (Brain [26]): 24 | Drug uptake (Mus musculus [27]): 0.76 % ID/g | Drug uptake (Brain [28]): 0.12 % ID/g | Drug uptake (Mus musculus [29]): 25.4 % ID/g | Drug uptake (Muscle tissue [30]): 1.54 % ID/g | Drug uptake (Brain [31]): 0.11 % ID/g | Drug uptake (Mus musculus [32]): 0.81 % ID/g | Drug uptake (Spleen [33]): 2.05 % ID/g | Drug uptake (Mus musculus [34]): 21.23 % ID/g | Drug uptake (Muscle tissue [35]): 2.37 % ID/g | Drug uptake (Spleen [36]): 1.36 % ID/g | Drug uptake (Brain [37]): Active | Drug uptake (Kidney [38]): 7.44 % ID/g | Drug uptake (Lung [39]): 2.24 % ID/g | Drug uptake (Blood [40]): 0.61 % ID/g | Drug uptake (Liver [41]): 18.42 % ID/g | Drug uptake (Muscle tissue [42]): 1.06 % ID/g | Drug uptake (Spleen [43]): 3.92 % ID/g | Drug uptake (Pancreas [44]): 3.52 % ID/g | Drug uptake (Lung [45]): 3.76 % ID/g | Drug uptake (Heart [46]): 1.98 % ID/g | Drug uptake (Lung [47]): 14.3 % ID/g | Drug uptake (Blood [48]): 0.95 % ID/g | Drug uptake (Brain [49]): 0.1 % ID/g | Drug uptake (Lung [50]): 3.34 % ID/g | Drug uptake (Mus musculus [51]): 14.31 % ID/g | Drug uptake (Kidney [52]): 8.36 % ID/g | Drug uptake (Heart [53]): 3.08 % ID/g | Ratio AUC (Brain [54]): 8 | Drug uptake (Mus musculus [55]): 1.98 % ID/g | Drug uptake (Kidney [56]): 4.91 % ID/g | Drug uptake (Kidney [57]): 7.68 % ID/g | Drug uptake (Mus musculus [58]): 1.69 % ID/g | Drug uptake (Pancreas [59]): 2.66 % ID/g
SMILES: COc1cc2ncnc(Oc3cccc(N[11C](=O)Nc4cc(C(C)(C)C(F)(F)F)on4)c3)c2cc1OC.Cl
